# Results: patent US9732087B2, “Diamino-pyridine, pyrimidine, and pyridazine modulators of the histamine H4 receptor” (JANSSEN PHARMACEUTICA NV, priority 2008, dated 2017)
# Counter-ions that a name gives are not always drawn.
# Target: human H4 receptor (Homo sapiens (Human), UniProt Q9H3N8)
# Assay: Binding assay on recombinant human histamine H4 receptor ([3H]histamine competition, SK-N-MC cell membranes)
# Conditions: membranes harvested with 96 well Brandel system; [3H]histamine 10 nM; average of results; read-out: Brandel Ki
# In short: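 Membranes from SK-N-MC cells stably or transiently transfected with human H4 receptor, prepared by homogenization and 30,000 g centrifugation in Tris/EDTA. Bound [3H]histamine separated by rapid filtration on PEI-treated GF/C filters, washed with ice-cold Tris/EDTA, counted by scintillation. '>' values denote highest concentration tested.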
row,Ki,SMILES
1,5.9 nM,"CN[C@@H]1CCN(c2cnnc(N[C@H]3C[C@H]4C[C@@H]([C@@H]3C)C4(C)C)c2)C1 [Example 97, 5-[(3R)-3-(Methylamino)pyrrolidin-1-yl]-N-[(1S,2S,3S,5R)-2,6,6-trimethylbicyclo[3.1.1]hept-3-yl]pyridazin-3-amine]"
2,31 nM,"CCCCNc1cc(N2CC[C@@H](NC)C2)cnn1 [Example 100, N-Butyl-5-[(3R)-3-(methylamino)pyrrolidin-1-yl]pyridazin-3-amine]"

row,SMILES,Ki
1,"c1cc(N2CCNCC2)nc(NCC2CC2)n1 [Example 66, Cyclopropylmethyl-(4-piperazin-1-yl-pyrimidin-2-yl)-amine]",12.2 nM

# Same assay, conditions: membranes harvested with cell harvester; [3H]histamine 10 nM; average of results; read-out: Cell Harvester Ki
row,SMILES,Ki
1,"CN[C@H]1CCN(c2ccnc(N[C@H](C)C3CCCCC3)c2)C1 [Example 213, N-[(1R)-1-Cyclohexylethyl]-4-[(3S)-3-(methylamino)pyrrolidin-1-yl]pyridin-2-amine]",157 nM
2,"c1cc(N2CCNCC2)nc(NCC2CC2)n1 [Example 66, Cyclopropylmethyl-(4-piperazin-1-yl-pyrimidin-2-yl)-amine]",56.8 nM
3,"COCCNc1nccc(N2CC[C@@H](N)C2)n1 [Example 59, 4-[(3R)-3-Aminopyrrolidin-1-yl]-N-(2-methoxyethyl)pyrimidin-2-amine]",190 nM
4,c1cc(N2C[C@H]3CCN[C@H]3C2)cc(NCC2CCCCC2)n1 [Example 256],617 nM
5,"CC(C)(CO)CNc1nccc(N2CC[C@@H](N)C2)n1 [Example 153, 3-({4-[(3R)-3-Aminopyrrolidin-1-yl]pyrimidin-2-yl}amino)-2,2-dimethylpropan-1-ol]",43.6 nM
6,"CN[C@H]1CCN(c2ccnc(NC3C4CC5CC(C4)CC3C5)c2)C1 (stereo partly drawn) [Example 215, Adamantan-2-yl-[4-(3S)-(3-methylamino-pyrrolidin-1-yl)-pyridin-2-yl]-amine]",69.6 nM
7,"CC1(C)[C@@H]2CC[C@@]1(C)[C@@H](Nc1nccc(N3C[C@H]4CCN[C@H]4C3)n1)C2 [Example 125, 4-[(3aR,6aR)-Hexahydropyrrolo[3,4-b]pyrrol-5(1H)-yl]-N-[(1R,2S,4R)-1,7,7-trimethylbicyclo[2.2.1]hept-2-yl]pyrimidin-2-amine]",2.1 nM
8,"CN1CCN(c2cnnc(NC3CCCC3)c2)CC1 [Example 407, N-Cyclopentyl-5-(4-methylpiperazin-1-yl)pyridazin-3-amine]",824 nM
9,"CN1CCN(c2cnnc(NCCc3ccccc3)c2)CC1 [Example 409, 5-(4-Methylpiperazin-1-yl)-N-(2-phenylethyl)pyridazin-3-amine]",> 10000 nM
10,"CN1CCN(c2ccnc(NCc3ccccn3)c2)CC1 [Example 244, 4-(4-Methylpiperazin-1-yl)-N-(pyridin-2-ylmethyl)pyridin-2-amine]",3880 nM
11,"N[C@H]1CCN(c2ccnc(NC3CCCCC3)n2)C1 [Example 129, 4-[(3S)-3-Aminopyrrolidin-1-yl]-N-cyclohexylpyrimidin-2-amine]",141 nM
12,"c1cc(N2CCNCC2)nc(NC2CCCC2)n1 [Example 63, Cyclopentyl-(4-piperazin-1-yl-pyrimidin-2-yl)-amine]",293 nM
13,"CC1(C)C2CCC(CNc3nccc(N4CC[C@@H](N)C4)n3)C1C2 (stereo partly drawn) [Example 106, 4-[(3R)-3-Aminopyrrolidin-1-yl]-N-[(6,6-dimethylbicyclo[3.1.1]hept-2-yl)methyl]pyrimidin-2-amine]",194 nM
14,"N[C@@H]1CCN(c2ccnc(NCC3CCCO3)n2)C1 (stereo partly drawn) [Example 51, 4-[(R)-3-Aminopyrrolidin-1-yl]-N-(tetrahydrofuran-2-ylmethyl)pyrimidin-2-amine]",123 nM
15,"CC(C)CNc1cc(N2C[C@H]3CCN[C@H]3C2)cnn1 [Example 318, 5-[(3aR,6aR)-Hexahydropyrrolo[3,4-b]pyrrol-5(1H)-yl]-N-(2-methylpropyl)pyridazin-3-amine]",1240 nM
16,"CN[C@@H]1CCN(c2ccnc(NCC3CCCO3)c2)C1 (stereo partly drawn) [Example 6, 4-[(3R)-3-(Methylamino)pyrrolidin-1-yl]-N-[tetrahydrofuran-2-ylmethyl]pyridin-2-amine dihydrochloride]",35.1 nM

row,SMILES,Ki
1,"COCCNc1cc(N2CCNCC2)ccn1 [Example 37, N-(2-Methoxyethyl)-4-piperazin-1-ylpyridin-2-amine]",247 nM
2,"CN1CCN(c2ccnc(NC3CC3)n2)CC1 [Example 56, N-Cyclopropyl-4-(4-methylpiperazin-1-yl)pyrimidin-2-amine]",568 nM
3,"CC1C(Nc2cc(N3C[C@H]4CCN[C@H]4C3)ccn2)C[C@H]2C[C@@H]1C2(C)C (stereo partly drawn) [Example 287, 4-[(3aR,6aR)-Hexahydropyrrolo[3,4-b]pyrrol-5(1H)-yl]-N-[(1S,5R)-2,6,6-trimethylbicyclo[3.1.1]hept-3-yl]pyridin-2-amine]",98.9 nM
4,"N[C@@H]1CCN(c2ccnc(NCCCC(F)(F)F)n2)C1 [Example 150, 4-[(3R)-3-Aminopyrrolidin-1-yl]-N-(4,4,4-trifluorobutyl)pyrimidin-2-amine]",29.7 nM
5,"CN[C@@H]1CCN(c2ccnc(N[C@H]3C[C@H]4CC[C@]3(C)C4(C)C)c2)C1 [Example 247, 4-[(3R)-3-(Methylamino)pyrrolidin-1-yl]-N-[(1R,2S,4R)-1,7,7-trimethylbicyclo[2.2.1]hept-2-yl]pyridin-2-amine]",1.41 nM
6,"CN[C@H]1CCN(c2ccnc(NCC3CCCCC3)c2)C1 [Example 225, N-(Cyclohexylmethyl)-4-[(3S)-3-(methylamino)pyrrolidin-1-yl]pyridin-2-amine]",75.1 nM
7,"CN1CCN(c2ccnc(NCCc3ccccc3)n2)CC1 [Example 173, 4-(4-Methylpiperazin-1-yl)-N-(2-phenylethyl)pyrimidin-2-amine]",745 nM
8,"CNC1CN(c2ccnc(NC3CC4CCC3C4)n2)C1 (centres unmarked) [Example 147, N-Bicyclo[2.2.1]hept-2-yl-4-[3-(methylamino)azetidin-1-yl]pyrimidin-2-amine]",6.66 nM
9,"CN1CCN(c2ccnc(NCCc3ccccc3)c2)CC1 [Example 250, 4-(4-Methylpiperazin-1-yl)-N-(2-phenylethyl)pyridin-2-amine]",659 nM
10,"OCCCNc1nccc(N2CC3CCN[C@H]3C2)n1 (stereo in doubt) [Example 159, 3-({4-[(3aR,6aR)-Hexahydropyrrolo[3,4-b]pyrrol-5(1H)-yl]pyrimidin-2-yl}amino)propan-1-ol]",266 nM
11,"CN1CCN(c2ccnc(NCC3CCCO3)n2)CC1 (centres unmarked) [Example 50, 4-(4-Methylpiperazin-1-yl)-N-(tetrahydrofuran-2-ylmethyl)pyrimidin-2-amine]",33.2 nM
12,"CN[C@@H]1CCN(c2ccnc(NCc3ccc(OC)cc3)n2)C1 [Example 176, N-(4-Methoxybenzyl)-4-[(3R)-30(methylamino)pyrrolidin-1-yl]pyrimidin-2-amine]",458 nM
13,"c1cc(N2CCNCC2)cc(NCC2CCCO2)n1 (centres unmarked) [Example 39, 4-Piperazin-1-yl-N-(tetrahydrofuran-2-ylmethyl)pyridin-2-amine]",554 nM
14,"NC1CN(c2ccnc(NC3CCCC3)n2)C1 [Example 85, 4-(3-Aminoazetidin-1-yl)-N-cyclopentylpyrimidin-2-amine]",18.2 nM
15,"CN[C@@H]1CCN(c2ccnc(NCC3CCCC3)c2)C1 [Example 226, N-(Cyclopentylmethyl)-4-[(3R)-3-(methylamino)pyrrolidin-1-yl]pyridin-2-amine]",3.81 nM

# More lines, now with the values ahead:
row,Ki,SMILES
1,5.9 nM,"CN[C@@H]1CCN(c2cnnc(N[C@H]3C[C@H]4C[C@@H]([C@@H]3C)C4(C)C)c2)C1 [Example 97, 5-[(3R)-3-(Methylamino)pyrrolidin-1-yl]-N-[(1S,2S,3S,5R)-2,6,6-trimethylbicyclo[3.1.1]hept-3-yl]pyridazin-3-amine]"
2,7260 nM,"CN[C@H]1CCN(c2ccnc(NCCCO)c2)C1 [Example 234, 3-({4-[(3S)-3-(Methylamino)pyrrolidin-1-yl]pyridin-2-yl}amino)propan-1-ol]"
3,835 nM,"CN[C@@H]1CCN(c2cnnc(NCc3ccoc3)c2)C1 [Example 387, N-(Furan-3-ylmethyl)-5-[(3R)-3-(methylamino)pyrrolidin-1-yl]pyridazin-3-amine]"
4,146 nM,"CNC1CN(c2cnnc(NCCCC(F)(F)F)c2)C1 [Example 299, 5-[3-(Methylamino)azetidin-1-yl]-N-(4,4,4-trifluorobutyl)pyridazin-3-amine]"
5,> 10000 nM,"COCCNc1cc(N2CC(N)C2)cnn1 [Example 335, 5-(3-Aminoazetidin-1-yl)-N-(2-methoxyethyl)pyridazin-3-amine]"
6,899 nM,"CNC1CN(c2cnnc(NCC(C)(C)C)c2)C1 [Example 324, N-(2,2-Dimethylpropyl)-5-[3-(methylamino)azetidin-1-yl]pyridazin-3-amine]"
7,173 nM,"CNC1CN(c2ccnc(NCC(C)(C)O)c2)C1 [Example 282, 2-Methyl-1-({4-[3-(methylamino)azetidin-1-yl]pyridin-2-yl}amino)propan-2-ol]"
8,2000 nM,"CN[C@@H]1CCN(c2cnnc(NCc3ccc(C)cc3)c2)C1 [Example 384, 5-[(3R)-3-(Methylamino)pyrrolidin-1-yl]-N-(4-methylbenzyl)pyridazin-3-amine]"
9,31 nM,"CCCCNc1cc(N2CC[C@@H](NC)C2)cnn1 [Example 100, N-Butyl-5-[(3R)-3-(methylamino)pyrrolidin-1-yl]pyridazin-3-amine]"
10,167 nM,CCCCNc1cc(N2CC[C@H](NC)C2)ccn1 [Example 243]
11,> 10000 nM,"CN1CCN(c2cnnc(NCC3CCCC3)c2)CC1 [Example 408, N-(Cyclopentylmethyl)-5-(4-methylpiperazin-1-yl)pyridazin-3-amine]"
12,45.4 nM,"CN[C@@H]1CCN(c2ccnc(NCC(C)(C)O)n2)C1 [Example 114, 2-Methyl-1-({4-[(3R)-3-(methylamino)pyrrolidin-1-yl]pyrimidin-2-yl}amino)propan-2-ol]"
13,936 nM,"N[C@@H]1CCN(c2cnnc(NCc3ccc(F)cc3)c2)C1 [Example 342, 5-[(3R)-3-Aminopyrrolidin-1-yl]-N-(4-fluorobenzyl)pyridazin-3-amine]"
14,547 nM,"N[C@@H]1CCN(c2cnnc(NCC3CC4CCC3C4)c2)C1 (stereo partly drawn) [Example 312, 5-[(3R)-3-Aminopyrrolidin-1-yl]-N-(bicyclo[2.2.1]hept-2-ylmethyl)pyridazin-3-amine]"
15,141 nM,"CNC1CN(c2ccnc(NCc3ccccc3)c2)C1 [Example 285, N-Benzyl-4-[3-(methylamino)azetidin-1-yl]pyridin-2-amine]"
16,1900 nM,"CN[C@H]1CCN(c2cnnc(NC3CC3)c2)C1 [Example 395, N-Cyclopropyl-5-[(3S)-3-(methylamino)pyrrolidin-1-yl]pyridazin-3-amine]"
